Consider ten compounds from patent US12226414B2, “1-isopropyl-3-methyl-8-(pyridin-3-yl)-1,3-dihydro-2H-imidazo[4,5-c] cinnolin-2-one as selective modulators of ataxia telangiectasia mutated (ATM) kinase and uses thereof” (SUZHOU ZANRONG PHARMA LIMITED, priority 2018, dated 2025).

Where only a bound is given, the exact number is not on record here.

One data set concerns the target PIK3Cβ (p110β) (Homo sapiens (Human), UniProt P42338). Kind of data set: PI3K biochemical potency assay (PI3Kβ). As for the experimental part:
(§1) PI3Kα (p110α/p85a), PIK3C δ, PIK3Cβ (p110β), PIK3Cγ (pp110γ) kinase reaction solutions of PI3Kα (Invitrogen, Cat. No. PV4788), PIK3Cδ (Invitrogen, Cat. No. PV6452), PIK3Cβ (Millipore, Cat. No. 14-603-K), PIK3Cγ (Invitrogen, Cat. No. PR8641C) enzymes were prepared in 1× kinase buffer at 4-fold of the final concentration (final concentration: PI3Kα 0.7 nM, PIK3Cδ 3 nM, PIK3Cβ 4.8 nM, PIK3Cγ 11 nM) of each reagent in the assay. 2.5 μl of kinase solution was added to each well of the 384-well assay plate, which contains 2.5 μl of compounds with serially diluted concentration. 2× substrate solution was prepared with PIP2 substrate and ATP in 1× kinase reaction buffer at 2-fold of the final concentration of each reagent in the assay. 5 μl of substrate solution was added to each well of the assay plate to start reaction. The assay plate was incubated at room temperature for 1 hour. 5 μl reaction mix was transferred to a new 384 well plate. 5 μl of ADP-Glo reagent (Promega, Cat. No. v9102/3, Lot. No. 0000176563) was added to each well of the new assay plate to stop the reaction. The plate was shaken slowly and equilibrated for 40 minutes. 10 μl kinase detection reagents was added to each well, which was equilibrated for 60 minutes before read on a plate reader (Envision) for luminescence.

A further data set concerns the target PIK3Cγ (pp110γ) (Homo sapiens (Human), UniProt P48736). As to the kind of experiment: PI3K biochemical potency assay (PI3Kγ). As for the experimental part: as §1
The target in another data set is ATR (Homo sapiens (Human), UniProt Q13535). As to the kind of experiment: ATR biochemical potency assay. As for the experimental part: ATR enzyme was made by ChemPartner (batch: CP-ATR-20161102-M2). 2× enzyme solutions were prepared in 1× kinase base buffer. 10 μl of 2× enzyme solution (final concentration: 2.5 nM) was added to each well of the 384-well assay plate containing 60 nl compound in each well. The plate was incubated at room temperature for 10 minutes. 2× peptide solutions were prepared with FAM-labeled peptide and ATP in the 1× kinase base buffer. 10 μl of 2× peptide solution was added to each well of the 384-well assay plate, which was incubated at 28° C. for 240 min. 40 μl of stop buffer was added to stop reaction. Data were collected by Caliper.

The target of a further data set is PIK3Cδ (Homo sapiens (Human), UniProt O00329). Kind of data set: PI3K biochemical potency assay (PI3Kδ). As for the experimental part: as §1
The next data set deals with ATM (Homo sapiens (Human), UniProt Q13315). Kind of data set: ATM biochemical potency assay. As for the experimental part:
The plate was incubated at room temperature for 10 minutes. […] Data was collected by Caliper.

A further data set has as its target PI3Kα (p110α/p85a) (Homo sapiens (Human), UniProt P42336). Kind of data set: PI3K biochemical potency assay (PI3Kα). As for the experimental part: as §1
Another data set addresses mTOR (Homo sapiens (Human), UniProt P42345). As to the kind of experiment: mTOR biochemical potency assay. As for the experimental part:
Solution of mTOR enzymes (Millipore, Cat. No. 14-770, Lot. No. 2052551) was prepared in 1× kinase buffer at 4-fold of the final concentration (final concentration: 6 nM) in the assay. 2.5 μl of kinase solution was added to each well of the 384-well assay plate, which contains 2.5 μl of compounds with serially diluted concentration. 2× substrate solution was prepared with ULight-4E-BP1 (Thr37/46) Peptide (PE, Cat. No. TRF0128-M, Lot. No. 1695274) and ATP in 1× kinase reaction buffer at 2-fold of the final concentration of each reagent in the assay. 5 μl of substrate solution was added to each well of the assay plate to start reaction. The assay plate was incubated at room temperature for 30 minutes. Detection solution of kinase quench buffer (EDTA) and Eu-anti-phospho-4E-BP1 antibody (Thr37/46) (PE, Cat. No. TRF0216-M, Lot. No. 1571838) were prepared at 2-fold the desired final concentrations of each reagent in Lance detection buffer. 10 μl of detection solution buffer was added to each well of the assay plate. The assay plate was equilibrated for 60 minutes at room temperature before read on a plate reader (Lance signal (665 nm) from Envision program).

The target of data set [1] is ATM in SN38 treated HT-29 cells (Homo sapiens (Human), UniProt Q13315). As to the kind of experiment: ATM SN-38 HT-29 cellular potency assay.
Method: Inhibition of ATM was evaluated in SN38 treated HT-29 cells (ATCC, Cat #HTB-38) by high-Content Imaging System
HT-29 cells were trypsinized and approximately 10,000 cells were seeded per well to 96-well microplates which were incubated overnight at 37° C. and 5% CO2. Test compounds were added to the 96-well plates which were incubated at 37° C. and 5% CO2 for 1 hour. […] After the plates were rinsed 3 times with PBSA, 50 μl permeabilization buffer (0.1% Triton-X 100 in PBSA) was added and the plates were incubated for 20 minutes at room temperature. After the plates were rinsed once with PBSA, 50 μl primary antibody solution was added and the plates were incubated in at 4° C. overnight. […] The plates were rinsed with PBST 3 times and then 100 μl PBSA were added per well. The plates were sealed with black plate seals.
A further data set deals with P-glycoprotein (Pgp) (Homo sapiens (Human), UniProt P08183). As to the kind of experiment: MDCK-MDR1 Pgp assessment.
In a further data set the target is hERG channel (Homo sapiens (Human), UniProt Q12809). Kind of data set: hERG safety assessment, manual patch clamp. As to conditions: for hERG inhibition @10 μM: HEK 293 cells stably expressing hERG.
The next data set deals with BCRP (Homo sapiens (Human), UniProt Q9UNQ0). As to the kind of experiment: Caco-2 BCRP assessment. As to conditions: −inhibitor/+inhibitor (novobiocin 30 μM). Format: in vitro ADME. The source says:
Caco-2 cells was used to study efflux transport mediated by BCRP.

For data set [2] the following is noted: cited from earlier work; for clearance as % liver blood flow: humans.
Data set [3] has as its target T1, aldehyde oxidase (AO) (Homo sapiens (Human), UniProt Q06278). Kind of data set: Aldehyde oxidase assay in human liver cytosol. The settings on record: human liver cytosol 1 mg/mL, 0.5 μM compound.
Data set [4] deals with T1, aldehyde oxidase (AO). Kind of data set: in vitro. As to conditions: human liver cytosol.

Sequence of ATM in SN38 treated HT-29 cells (Q13315 whole entry, looked up): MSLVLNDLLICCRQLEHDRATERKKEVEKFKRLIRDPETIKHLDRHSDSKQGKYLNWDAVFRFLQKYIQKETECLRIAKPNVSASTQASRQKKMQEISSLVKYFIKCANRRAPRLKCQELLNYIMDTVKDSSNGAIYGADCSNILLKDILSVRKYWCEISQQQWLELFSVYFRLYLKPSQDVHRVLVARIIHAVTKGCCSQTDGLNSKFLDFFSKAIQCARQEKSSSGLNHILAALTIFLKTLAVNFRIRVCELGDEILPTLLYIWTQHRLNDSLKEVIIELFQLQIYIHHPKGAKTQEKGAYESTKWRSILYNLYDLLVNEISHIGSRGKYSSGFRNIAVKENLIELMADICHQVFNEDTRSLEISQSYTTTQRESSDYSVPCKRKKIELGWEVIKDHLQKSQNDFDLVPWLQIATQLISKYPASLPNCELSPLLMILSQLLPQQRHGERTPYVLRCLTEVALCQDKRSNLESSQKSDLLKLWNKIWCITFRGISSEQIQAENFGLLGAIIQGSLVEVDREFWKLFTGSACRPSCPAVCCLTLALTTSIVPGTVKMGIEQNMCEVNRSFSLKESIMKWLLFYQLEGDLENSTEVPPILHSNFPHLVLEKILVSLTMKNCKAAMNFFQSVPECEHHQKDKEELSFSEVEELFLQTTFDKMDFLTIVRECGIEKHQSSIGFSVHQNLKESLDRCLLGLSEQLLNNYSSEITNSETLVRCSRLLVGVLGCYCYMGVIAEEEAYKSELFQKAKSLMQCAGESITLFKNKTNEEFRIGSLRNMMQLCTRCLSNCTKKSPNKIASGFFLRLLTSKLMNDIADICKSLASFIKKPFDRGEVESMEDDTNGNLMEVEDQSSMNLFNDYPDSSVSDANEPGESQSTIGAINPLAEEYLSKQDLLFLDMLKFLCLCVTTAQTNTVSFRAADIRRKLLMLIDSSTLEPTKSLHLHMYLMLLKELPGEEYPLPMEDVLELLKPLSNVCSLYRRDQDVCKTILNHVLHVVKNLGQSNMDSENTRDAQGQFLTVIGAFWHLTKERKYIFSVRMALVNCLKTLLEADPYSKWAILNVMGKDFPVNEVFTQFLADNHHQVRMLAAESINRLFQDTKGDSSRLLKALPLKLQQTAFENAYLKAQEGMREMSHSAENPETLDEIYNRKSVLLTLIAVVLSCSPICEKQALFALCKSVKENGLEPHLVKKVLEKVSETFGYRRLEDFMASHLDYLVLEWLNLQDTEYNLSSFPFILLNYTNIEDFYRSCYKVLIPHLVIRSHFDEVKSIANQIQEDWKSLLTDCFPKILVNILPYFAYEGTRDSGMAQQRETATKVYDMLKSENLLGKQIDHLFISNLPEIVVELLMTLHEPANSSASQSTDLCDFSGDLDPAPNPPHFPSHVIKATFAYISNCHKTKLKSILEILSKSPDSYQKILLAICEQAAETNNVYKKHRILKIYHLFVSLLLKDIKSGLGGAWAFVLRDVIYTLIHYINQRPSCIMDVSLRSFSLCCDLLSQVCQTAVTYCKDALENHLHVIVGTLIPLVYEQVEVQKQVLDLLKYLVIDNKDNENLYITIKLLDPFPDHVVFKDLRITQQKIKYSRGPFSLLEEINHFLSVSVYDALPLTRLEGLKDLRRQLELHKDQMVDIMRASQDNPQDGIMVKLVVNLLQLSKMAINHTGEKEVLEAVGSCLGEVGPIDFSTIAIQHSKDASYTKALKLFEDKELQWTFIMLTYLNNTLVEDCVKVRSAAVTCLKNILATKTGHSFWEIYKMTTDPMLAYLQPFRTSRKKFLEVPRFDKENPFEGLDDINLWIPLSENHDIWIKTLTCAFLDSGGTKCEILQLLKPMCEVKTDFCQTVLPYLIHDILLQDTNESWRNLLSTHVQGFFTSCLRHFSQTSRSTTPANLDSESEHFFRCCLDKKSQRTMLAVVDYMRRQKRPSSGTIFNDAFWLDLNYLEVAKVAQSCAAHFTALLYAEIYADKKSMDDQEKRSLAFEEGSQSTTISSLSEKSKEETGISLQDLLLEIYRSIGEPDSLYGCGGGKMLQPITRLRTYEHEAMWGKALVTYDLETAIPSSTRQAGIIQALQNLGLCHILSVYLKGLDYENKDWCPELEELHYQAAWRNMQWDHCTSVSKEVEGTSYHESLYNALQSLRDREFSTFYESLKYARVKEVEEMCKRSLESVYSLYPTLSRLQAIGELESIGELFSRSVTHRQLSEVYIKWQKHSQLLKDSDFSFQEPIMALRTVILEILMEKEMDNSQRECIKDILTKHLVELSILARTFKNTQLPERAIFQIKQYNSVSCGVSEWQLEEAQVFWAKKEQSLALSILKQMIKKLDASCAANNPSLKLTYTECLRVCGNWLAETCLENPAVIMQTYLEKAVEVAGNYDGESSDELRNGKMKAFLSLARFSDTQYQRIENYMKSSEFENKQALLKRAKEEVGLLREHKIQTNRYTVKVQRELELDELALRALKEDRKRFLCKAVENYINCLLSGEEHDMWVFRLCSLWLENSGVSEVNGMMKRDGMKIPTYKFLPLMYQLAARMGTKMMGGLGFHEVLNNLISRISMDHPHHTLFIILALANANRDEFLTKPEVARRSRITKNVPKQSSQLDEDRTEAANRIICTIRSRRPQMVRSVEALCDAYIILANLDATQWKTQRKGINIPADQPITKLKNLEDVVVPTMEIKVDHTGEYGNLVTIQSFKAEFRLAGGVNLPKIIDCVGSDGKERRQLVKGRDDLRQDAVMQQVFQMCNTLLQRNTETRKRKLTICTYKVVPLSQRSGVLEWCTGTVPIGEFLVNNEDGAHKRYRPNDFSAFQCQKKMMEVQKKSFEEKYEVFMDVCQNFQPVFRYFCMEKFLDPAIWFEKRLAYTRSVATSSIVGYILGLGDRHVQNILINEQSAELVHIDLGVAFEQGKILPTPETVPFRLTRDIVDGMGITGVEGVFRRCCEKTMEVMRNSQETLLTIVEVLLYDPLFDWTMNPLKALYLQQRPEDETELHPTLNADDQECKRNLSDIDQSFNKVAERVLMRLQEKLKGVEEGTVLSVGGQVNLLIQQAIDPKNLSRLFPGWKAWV
Sequence of ATM (Q13315 whole entry, looked up): as above
Sequence of PIK3Cβ (p110β) (P42338 whole entry, looked up): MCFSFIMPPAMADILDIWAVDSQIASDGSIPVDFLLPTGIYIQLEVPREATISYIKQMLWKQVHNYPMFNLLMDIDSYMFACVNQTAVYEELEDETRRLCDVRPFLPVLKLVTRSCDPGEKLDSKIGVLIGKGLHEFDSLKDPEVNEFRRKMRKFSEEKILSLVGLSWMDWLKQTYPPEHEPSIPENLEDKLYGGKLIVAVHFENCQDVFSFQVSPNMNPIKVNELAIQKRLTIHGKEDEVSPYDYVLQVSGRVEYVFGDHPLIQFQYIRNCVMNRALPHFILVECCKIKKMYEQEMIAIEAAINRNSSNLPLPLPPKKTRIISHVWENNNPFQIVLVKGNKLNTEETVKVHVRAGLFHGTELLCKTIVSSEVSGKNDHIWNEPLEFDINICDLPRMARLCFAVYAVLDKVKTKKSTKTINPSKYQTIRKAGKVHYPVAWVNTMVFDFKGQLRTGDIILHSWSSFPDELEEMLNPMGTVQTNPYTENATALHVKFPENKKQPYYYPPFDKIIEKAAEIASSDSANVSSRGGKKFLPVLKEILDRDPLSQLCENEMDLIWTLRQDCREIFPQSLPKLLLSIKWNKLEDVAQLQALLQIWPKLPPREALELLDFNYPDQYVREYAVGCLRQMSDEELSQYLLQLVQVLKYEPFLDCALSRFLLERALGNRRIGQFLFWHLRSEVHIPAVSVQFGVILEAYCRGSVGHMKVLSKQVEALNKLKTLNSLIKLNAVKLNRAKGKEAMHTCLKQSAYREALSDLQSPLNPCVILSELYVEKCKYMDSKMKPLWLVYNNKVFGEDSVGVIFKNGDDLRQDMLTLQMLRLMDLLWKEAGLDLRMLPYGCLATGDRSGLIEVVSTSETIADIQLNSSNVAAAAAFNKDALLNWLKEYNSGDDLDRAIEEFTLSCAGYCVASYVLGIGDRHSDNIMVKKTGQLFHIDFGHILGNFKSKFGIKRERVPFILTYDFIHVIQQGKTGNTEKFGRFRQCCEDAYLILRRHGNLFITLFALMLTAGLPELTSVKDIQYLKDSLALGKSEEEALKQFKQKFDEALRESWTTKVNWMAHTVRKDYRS
Sequence of PIK3Cβ (p110β) (P27986 whole entry partner, looked up): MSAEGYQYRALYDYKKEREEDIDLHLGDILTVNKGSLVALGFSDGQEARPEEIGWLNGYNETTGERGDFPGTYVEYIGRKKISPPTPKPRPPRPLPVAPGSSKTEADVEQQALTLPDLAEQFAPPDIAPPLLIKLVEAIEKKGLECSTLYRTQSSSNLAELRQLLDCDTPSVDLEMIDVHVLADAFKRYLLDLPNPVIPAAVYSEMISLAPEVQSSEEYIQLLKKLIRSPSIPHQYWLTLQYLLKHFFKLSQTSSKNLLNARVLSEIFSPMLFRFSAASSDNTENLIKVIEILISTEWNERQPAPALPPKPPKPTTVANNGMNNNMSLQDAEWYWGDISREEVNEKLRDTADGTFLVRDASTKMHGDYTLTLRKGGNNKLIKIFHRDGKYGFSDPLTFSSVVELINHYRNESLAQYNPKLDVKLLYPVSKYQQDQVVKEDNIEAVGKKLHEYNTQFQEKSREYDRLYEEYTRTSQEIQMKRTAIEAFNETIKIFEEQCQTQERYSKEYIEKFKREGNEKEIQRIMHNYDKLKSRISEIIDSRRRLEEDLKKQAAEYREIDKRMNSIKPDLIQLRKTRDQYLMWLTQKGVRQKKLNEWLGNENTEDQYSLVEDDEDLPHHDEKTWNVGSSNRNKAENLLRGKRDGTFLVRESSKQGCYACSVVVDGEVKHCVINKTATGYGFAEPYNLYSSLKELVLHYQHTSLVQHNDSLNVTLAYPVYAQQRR
Method for P-glycoprotein (Pgp): Efflux transport mediated by P-glycoprotein (Pgp) was assessed by MDCK-MDR1 cells. The final concentrations of test compounds and control compound were at 1 μM. The multiwell insert plate was incubated at 37° C. for 2 hours.
Method for hERG channel: Inhibition of hERG channel was conducted in HEK 293 cell line stably expressing hERG channel by manual patch clamp.

On to `CC(C)n1c(=O)n(C)c2nnc3cc(F)c(-c4ccc(OCCCN5CCCCC5)nc4)cc3c21` [Example 1, 7-fluoro-1-isopropyl-3-methyl-8-(6-(3-(piperidin-1-yl)propoxy)pyridin-3-yl)-1H-imidazo[4,5-c]cinnolin-2(3H)-one], for which the half-maximal inhibitory concentration (IC50) at PIK3Cβ (p110β) is above 10 µM; on PIK3Cγ (pp110γ), above 10 µM; against ATR it was above 10 µM; at PIK3Cδ, above 10 µM; against ATM, 0.0019 µM; against PI3Kα (p110α/p85a), above 10 µM. In addition, the half-inhibitory concentration (IC50) is above 10 µM at mTOR and 0.0015 µM in data set [1].

As to `CC(C)n1c(=O)n(C)c2nnc3cc(F)c(-c4ccc(OCCCN(C)C)nc4)cc3c21` [Example 2, 8-(6-(3-(dimethylamino)propoxy)pyridin-3-yl)-7-fluoro-1-isopropyl-3-methyl-1H-imidazo[4,5-c]cinnolin-2(3H)-one], the IC50 is above 10 µM against PIK3Cβ (p110β); above 10 µM at PIK3Cγ (pp110γ); above 10 µM against ATR; above 10 µM on PIK3Cδ; 0.0043 µM against ATM; above 10 µM against PI3Kα (p110α/p85a). Besides, the IC50 on mTOR was above 10 µM; in data set [1], 0.27 µM.

Turning to `CC(C)n1c(=O)n(C)c2cnc3cc(F)c(-c4ccc(OCCCN5CCCCC5)nc4)cc3c21` [Ref. Comp. 3, AZD1390], the “Pgp substrate (in words)” value on P-glycoprotein (Pgp) is recorded as “not a Pgp substrate”. Also, on hERG channel, the “hERG liability (in words)” value is given as “significant hERG inhibition” and the “hERG inhibition @10 μM” value was found to be 79%.

Take `CC(C)n1c(=O)n(C)c2nnc3cc(F)c(-c4ccc(OCCCN5CCCC5)nc4)cc3c21` [Example 3, 7-fluoro-1-isopropyl-3-methyl-8-(6-(3-(pyrrolidin-1-yl)propoxy)pyridin-3-yl)-1H-imidazo[4,5-c]cinnolin-2(3H)-one]: the IC50 was above 10 µM against PIK3Cβ (p110β); above 10 µM at PIK3Cγ (pp110γ); above 10 µM against ATR; above 10 µM on PIK3Cδ; 0.0048 µM on ATM; above 10 µM against PI3Kα (p110α/p85a). For the same compound, the IC50 against mTOR was above 10 µM; in [1], 0.011 µM.

In the case of `CC(C)n1c(=O)n(C)c2nnc3cc(F)c(-c4ccc(COCCN5CC6CC6C5)nc4)cc3c21` (stereo not shown) [Example 11, 8-(6-((2-(3-azabicyclo[3.1.0]hexan-3-yl)ethoxy)methyl)pyridin-3-yl)-7-fluoro-1-isopropyl-3-methyl-1H-imidazo[4,5-c]cinnolin-2(3H)-one], the IC50 against PIK3Cβ (p110β) was above 10 µM; against PIK3Cγ (pp110γ), above 10 µM; against ATR, above 10 µM; at PIK3Cδ, above 10 µM; against ATM it was 0.037 µM; on PI3Kα (p110α/p85a), above 10 µM. For the same compound, the IC50 against mTOR was above 10 µM; in data set [1], 0.018 µM.

Regarding `CN(C)CCCOc1ccc(-c2ccc3nnc4c(c3c2)n(C2CCOCC2)c(=O)n4C)cn1` [compound 1, 8-[6-(3-dimethylamino-propoxy)-pyridin-3-yl]-3-methyl-1-(tetrahydro-2H-pyran-4-yl)-1H-imidazo[4,5-c]cinnolin-2(3H)-one], the efflux ratio at 2 h, 1 μM was 5.6 on P-glycoprotein (Pgp) (human) and 0.62 on BCRP. For the same compound, the IC50 against ATM was 0.0029 µM; in [1], 0.112 µM. Further, the “hERG inhibition @10 μM” value at hERG channel is recorded as 58%.

Take `CC(C)n1c(=O)n(C)c2nnc3cc(F)c(-c4ccc(OCCCN5CCC(F)CC5)nc4)cc3c21` [Example 13, 7-fluoro-8-(6-(3-(4-fluoropiperidin-1-yl)propoxy)pyridin-3-yl)-1-isopropyl-3-methyl-1H-imidazo[4,5-c]cinnolin-2(3H)-one]: the 50% inhibitory concentration (IC50) against PIK3Cβ (p110β) was above 10 µM; against PIK3Cγ (pp110γ) it was above 10 µM; on ATR, above 10 µM; at PIK3Cδ it was above 10 µM; at ATM, above 1 µM; against PI3Kα (p110α/p85a), above 10 µM. The half-inhibitory concentration (IC50) against mTOR was above 10 µM; in data set [1], 0.027 µM.

For the compound `CCN(C(C)=O)c1cccc(-c2ccnc3c(C#N)cnn23)c1` [Ref. Comp. 4, N-[3-(3-cyanopyrazolo[1,5-a]pyrimidin-7-yl)phenyl]-N-ethylacetamide], the “clearance as % liver blood flow” value in data set [2] is on record as around 80 % liver blood flow. The AO intrinsic clearance on aldehyde oxidase (AO) [3] was determined as 3.1 μL/min/mg protein. For the same compound, the microsomal CLint at 0.5 μM on aldehyde oxidase (AO) [4] amounted to 3.1 µL/min/mg.

As to `OCCn1cc(-c2cnc3nnn(Cc4ccc5ncccc5c4)c3n2)cn1` [Ref. Comp. 5, 2-[4-[3-(quinolin-6-ylmethyl)triazolo[4,5-b]pyrazin-5-yl]pyrazol-1-yl]ethanol], in [2], the clearance in humans is on record as 6 mL/min/kg and the “clearance as % liver blood flow” value was around 30 % liver blood flow.

Regarding `CC(C)n1c(=O)n(C)c2nnc3cc(F)c(-c4ccc(OCCCN5CC6CC6C5)nc4)cc3c21` (stereo not shown) [Example 16, 8-(6-(3-(3-azabicyclo[3.1.0]hexan-3-yl)propoxy)pyridin-3-yl)-7-fluoro-1-isopropyl-3-methyl-1H-imidazo[4,5-c]cinnolin-2(3H)-one], the IC50 against PIK3Cβ (p110β) is above 10 µM; on PIK3Cγ (pp110γ), above 10 µM; on ATR it was above 10 µM; against PIK3Cδ, above 10 µM; against ATM it was above 1 µM; at PI3Kα (p110α/p85a), above 10 µM. The half-inhibitory concentration (IC50) against mTOR is above 10 µM; in data set [1], 0.0185 µM.

In general, IC50 refers to the concentration needed to halve the response being measured. Read a low IC50 as inhibition by little substance. As a reminder, the efflux ratio is the permeability from basolateral to apical divided by that in the opposite direction, in the common usage. By microsomal CLint is commonly meant a measure of how fast metabolising enzymes remove a compound, apart from limits set by blood flow.
